Experimental data taken from US12077503B2, “Substituted cyclic amides and their use as herbicides” (FMC CORPORATION, priority 2015, dated 2024).

How the values were obtained:
Format in all cases: in vivo
rice (Oryra sativa) = assay: Test B flooded paddy test; conditions: Oryza sativa, 250 g ai/ha, Flood; 0 to 100 scale where 0 is no effect and 100 is complete control; read-out: Rice plant response rating
How it was run: (§1)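 2-leaf plants; pots flooded 3 cm over soil; cpd added to paddy water; depth held; greenhouse 13–15 d; visual rating vs controls, 0 = no effect, 100 = complete control.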

[1] = tested on: barnyardgrass (Echinochloa crus-galli); assay: Test B flooded paddy test; conditions: Echinochloa crus-galli, 250 g ai/ha, Flood; 0 to 100 scale where 0 is no effect and 100 is complete control; read-out: Barnyardgrass plant response rating
How it was run: as §1

[2] = tested on: ducksalad (Heteranthera limosa); assay: Test B flooded paddy test; conditions: Heteranthera limosa, 250 g ai/ha, Flood; 0 to 100 scale where 0 is no effect and 100 is complete control; read-out: Ducksalad plant response rating
How it was run: as §1

[3] = tested on: sedge, umbrella (small-flower umbrella sedge, Cyperus difformis); assay: Test B flooded paddy test; conditions: Cyperus difformis, 250 g ai/ha, Flood; 0 to 100 scale where 0 is no effect and 100 is complete control; read-out: Sedge, Umbrella plant response rating
How it was run: as §1

[4] = tested on: giant foxtail (Setaria faberii); assay: Test A postemergence; conditions: Setaria faberi, post-emergence, 240 h
How it was run: (§2)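 Seeded soil received test chemicals as a preemergence directed spray, and seedlings at one to two leaves, 2–10 cm tall, received them postemergence, in a non-phytotoxic, surfactant-containing solvent mixture. Pots were held in a greenhouse for approximately 10 d, then rated for injury from 0, no effect, to 100, complete control.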

[5] = tested on: blackgrass (Alopecurus myosuroides); assay: Test A postemergence; conditions: Alopecurus myosuroides, post-emergence, 240 h
How it was run: as §2

Kochia (Kochia scoparia) [6] = assay: Test A postemergence; conditions: Bassia scoparia, post-emergence, 240 h
How it was run: as §2

[7] = tested on: barnyardgrass (Echinochloa crus-galli); assay: Test A postemergence; conditions: Echinochloa crus-galli, post-emergence, 240 h
How it was run: as §2

corn (Zea mays) = assay: Test A postemergence; conditions: Zea mays, post-emergence, 240 h
How it was run: as §2

[8] = tested on: wheat (Triticum aestivum); assay: Test A postemergence; conditions: Triticum aestivum, post-emergence, 240 h
How it was run: as §2

[9] = tested on: ryegrass, Italian (Italian ryegrass, Lolium multiflorum); assay: Test A postemergence; conditions: Lolium multiflorum, post-emergence, 240 h
How it was run: as §2

[10] = tested on: ragweed (common ragweed, Ambrosia elatior); assay: Test A postemergence; conditions: Ambrosia artemisiifolia, post-emergence, 240 h
How it was run: as §2

[11] = tested on: pigweed (Amaranthus retroflexus); assay: Test A postemergence; conditions: Amaranthus retroflexus, post-emergence, 240 h
How it was run: as §2

[12] = tested on: giant foxtail (Setaria faberii); assay: Test A preemergence; conditions: Setaria faberi, pre-emergence, 240 h, 0 to 100 scale where 0 is no effect and 100 is complete control, read-out: Foxtail, Giant plant response rating
How it was run: as §2

Kochia (Kochia scoparia) [13] = assay: Test A preemergence; conditions: Bassia scoparia, pre-emergence, 240 h, 0 to 100 scale where 0 is no effect and 100 is complete control, read-out: Kochia plant response rating
How it was run: as §2

[14] = tested on: barnyardgrass (Echinochloa crus-galli); assay: Test A preemergence; conditions: Echinochloa crus-galli, pre-emergence, 240 h, 0 to 100 scale where 0 is no effect and 100 is complete control, read-out: Barnyardgrass plant response rating
How it was run: as §2

[15] = tested on: ryegrass, Italian (Italian ryegrass, Lolium multiflorum); assay: Test A preemergence; conditions: Lolium multiflorum, pre-emergence, 240 h, 0 to 100 scale where 0 is no effect and 100 is complete control, read-out: Ryegrass, Italian plant response rating
How it was run: as §2

[16] = tested on: ragweed (common ragweed, Ambrosia elatior); assay: Test A preemergence; conditions: Ambrosia artemisiifolia, pre-emergence, 240 h, 0 to 100 scale where 0 is no effect and 100 is complete control, read-out: Ragweed plant response rating
How it was run: as §2

[17] = tested on: pigweed (Amaranthus retroflexus); assay: Test A preemergence; conditions: Amaranthus retroflexus, pre-emergence, 240 h, 0 to 100 scale where 0 is no effect and 100 is complete control, read-out: Pigweed plant response rating
[18] = 125 g ai/ha, preemergence, approx. 10 d

`CC(C)Oc1cc([C@H]2CN(C)C(=O)[C@@H]2C(=O)Nc2ccccc2F)ccc1F` [Compound 1074] showed a pest or weed control at 250 g/ha (rice (Oryra sativa)) of 35%, a pest or weed control at 250 g/ha [1] of 75% and a pest or weed control at 250 g/ha [2] of 100%. The pest or weed control at 250 g/ha [3] was 0%, the pest or weed control at 125 g/ha ([4]; 125 g ai/ha, postemergence, visual injury on 0 to 100 scale (0 no effect, 100 complete control), approx. 10 d, read-out: Foxtail, Giant plant response rating) was 90% and the pest or weed control at 31 g/ha ([4]; Postemergence, 31 g ai/ha, visual injury after approx. 10 d, 0 to 100 scale, 0 no effect, 100 complete control, read-out: Plant response rating, Foxtail, Giant) was 70%. The pest or weed control at 125 g/ha ([5]; 125 g ai/ha, postemergence, visual injury on 0 to 100 scale (0 no effect, 100 complete control), approx. 10 d, read-out: Blackgrass plant response rating) was 50%, the pest or weed control at 31 g/ha ([5]; Postemergence, 31 g ai/ha, visual injury after approx. 10 d, 0 to 100 scale, 0 no effect, 100 complete control, read-out: Plant response rating, Blackgrass) was 20% and the pest or weed control at 125 g/ha (Kochia (Kochia scoparia) [6]; 125 g ai/ha, postemergence, visual injury on 0 to 100 scale (0 no effect, 100 complete control), approx. 10 d, read-out: Kochia plant response rating) was 20%. For the same compound, the pest or weed control at 31 g/ha (Kochia (Kochia scoparia) [6]; Postemergence, 31 g ai/ha, visual injury after approx. 10 d, 0 to 100 scale, 0 no effect, 100 complete control, read-out: Plant response rating, Kochia) was 0%, the pest or weed control at 125 g/ha ([7]; 125 g ai/ha, postemergence, visual injury on 0 to 100 scale (0 no effect, 100 complete control), approx. 10 d, read-out: Barnyardgrass plant response rating) was 90% and the pest or weed control at 31 g/ha ([7]; Postemergence, 31 g ai/ha, visual injury after approx. 10 d, 0 to 100 scale, 0 no effect, 100 complete control, read-out: Plant response rating, Barnyardgrass) was 80%. For the same compound, the plant injury at 125 g/ha (corn (Zea mays); 125 g ai/ha, postemergence, visual injury on 0 to 100 scale (0 no effect, 100 complete control), approx. 10 d, read-out: Corn plant response rating) was 20%, the Corn plant response rating (crop injury, 0 = no effect, 100 = complete kill) at 31 g/ha (corn (Zea mays); Postemergence, 31 g ai/ha, visual injury after approx. 10 d, 0 to 100 scale, 0 no effect, 100 complete control) was 0% and the plant injury at 125 g/ha ([8]; 125 g ai/ha, postemergence, visual injury on 0 to 100 scale (0 no effect, 100 complete control), approx. 10 d, read-out: Wheat plant response rating) was 40%. The plant injury at 31 g/ha ([8]; Postemergence, 31 g ai/ha, visual injury after approx. 10 d, 0 to 100 scale, 0 no effect, 100 complete control, read-out: Plant response rating, Wheat) was 0%, the pest or weed control at 125 g/ha ([9]; 125 g ai/ha, postemergence, visual injury on 0 to 100 scale (0 no effect, 100 complete control), approx. 10 d, read-out: Ryegrass, Italian plant response rating) was 30% and the pest or weed control at 31 g/ha ([9]; Postemergence, 31 g ai/ha, visual injury after approx. 10 d, 0 to 100 scale, 0 no effect, 100 complete control, read-out: Plant response rating, Ryegrass, Italian) was 20%. It also gave a pest or weed control at 125 g/ha ([10]; 125 g ai/ha, postemergence, visual injury on 0 to 100 scale (0 no effect, 100 complete control), approx. 10 d, read-out: Ragweed plant response rating) of 0%, a pest or weed control at 31 g/ha ([10]; Postemergence, 31 g ai/ha, visual injury after approx. 10 d, 0 to 100 scale, 0 no effect, 100 complete control, read-out: Plant response rating, Ragweed) of 0% and a pest or weed control at 125 g/ha ([11]; 125 g ai/ha, postemergence, visual injury on 0 to 100 scale (0 no effect, 100 complete control), approx. 10 d, read-out: Pigweed plant response rating) of 0%. The pest or weed control at 31 g/ha ([11]; Postemergence, 31 g ai/ha, visual injury after approx. 10 d, 0 to 100 scale, 0 no effect, 100 complete control, read-out: Plant response rating, Pigweed) was 0%, the pest or weed control at 31 g/ha ([12]; 31 g ai/ha, Preemergence) was 100% and the pest or weed control at 125 g/ha [12, 18] was 100%. The pest or weed control at 31 g/ha (Kochia (Kochia scoparia) [13]; 31 g ai/ha, Preemergence) was 0%, the pest or weed control at 125 g/ha (Kochia (Kochia scoparia) [13]; [18]) was 20% and the pest or weed control at 31 g/ha ([14]; 31 g ai/ha, Preemergence) was 90%. For the same compound, the pest or weed control at 125 g/ha [14, 18] was 100%, the pest or weed control at 31 g/ha ([15]; 31 g ai/ha, Preemergence) was 0% and the pest or weed control at 125 g/ha [15, 18] was 50%. For the same compound, the pest or weed control at 31 g/ha ([16]; 31 g ai/ha, Preemergence) was 0%, the pest or weed control at 125 g/ha [16, 18] was 10% and the pest or weed control at 31 g/ha ([17]; 31 g ai/ha, Preemergence) was 0%. The pest or weed control at 125 g/ha [17, 18] was 20%.
